Like-named read-outs stand apart in the source and are kept apart here.
Key:
hERG channel trafficking = system: hERG channel trafficking
Source text: Whole‐cell patch clamp conditions were similar to the previous one with the following slight changes (biphasic pulses 2 s at +20 mV and then for 3.2 s at −50 mV applied at a 0.1 Hz).

[1] = system: methoxamine‐sensitized rabbits; experiment: in vivo; set-up: species or system rabbit; details: pitolisant alone, 50 and 150 μg·kg^−1·min^−1 over 1 h
Protocol: All the other experimental groups were 100% female.
The anaesthetized methoxamine‐sensitized rabbit model of TdP is frequently used to study torsadogenic potential of drugs (Carlsson et al., 1990). Briefly, female animals were pre‐sensitized with i.v. infusion of methoxamine, an α1‐adrenoceptor agonist, delivered at 15 μg·kg^−1·min^−1 (6 mL·h^−1) over 70 min.

humans = details: human, ref Shah et al., 2016, cited from earlier work
rabbit Purkinje fibres = experiment: Action potential parameters in rabbit Purkinje fibres; assay type: cell-based
Protocol: Following a lethal dose of pentobarbital, the hearts of male New Zealand rabbits were immediately excised and immersed in a modified Tyrode solution maintained at room temperature and previously saturated with O2/CO2 (95%/5%). A piece of ventricle containing free running Purkinje fibres was fixed to the silastic bottom of an organ bath perfused with the same solution maintained at 37°C for 30 min. The preparation was then superfused with the modified Tyrode solution and stimulated for 30 min at 2 Hz and then at 1 Hz (2 ms stimulus at twice threshold). […] After a stabilization period of at least 1 h, action potentials typical for Purkinje fibres were recorded. Action potential reproducibility and stability were confirmed during a further 20 min stabilization period. […] Each was applied for 20 min to enable steady state to be reached. In addition, the emergence of early after‐depolarizations (EADs), favoured by calcium loading during the late phase 2 of the prolonged action potential, is recognized as a better marker of pro‐arrhythmic potential than APD prolongation alone.

NaV1.5 = NaV1.5 (Homo sapiens, UniProt Q14524); experiment: cell-based
Sequence of NaV1.5 (Q14524 whole entry): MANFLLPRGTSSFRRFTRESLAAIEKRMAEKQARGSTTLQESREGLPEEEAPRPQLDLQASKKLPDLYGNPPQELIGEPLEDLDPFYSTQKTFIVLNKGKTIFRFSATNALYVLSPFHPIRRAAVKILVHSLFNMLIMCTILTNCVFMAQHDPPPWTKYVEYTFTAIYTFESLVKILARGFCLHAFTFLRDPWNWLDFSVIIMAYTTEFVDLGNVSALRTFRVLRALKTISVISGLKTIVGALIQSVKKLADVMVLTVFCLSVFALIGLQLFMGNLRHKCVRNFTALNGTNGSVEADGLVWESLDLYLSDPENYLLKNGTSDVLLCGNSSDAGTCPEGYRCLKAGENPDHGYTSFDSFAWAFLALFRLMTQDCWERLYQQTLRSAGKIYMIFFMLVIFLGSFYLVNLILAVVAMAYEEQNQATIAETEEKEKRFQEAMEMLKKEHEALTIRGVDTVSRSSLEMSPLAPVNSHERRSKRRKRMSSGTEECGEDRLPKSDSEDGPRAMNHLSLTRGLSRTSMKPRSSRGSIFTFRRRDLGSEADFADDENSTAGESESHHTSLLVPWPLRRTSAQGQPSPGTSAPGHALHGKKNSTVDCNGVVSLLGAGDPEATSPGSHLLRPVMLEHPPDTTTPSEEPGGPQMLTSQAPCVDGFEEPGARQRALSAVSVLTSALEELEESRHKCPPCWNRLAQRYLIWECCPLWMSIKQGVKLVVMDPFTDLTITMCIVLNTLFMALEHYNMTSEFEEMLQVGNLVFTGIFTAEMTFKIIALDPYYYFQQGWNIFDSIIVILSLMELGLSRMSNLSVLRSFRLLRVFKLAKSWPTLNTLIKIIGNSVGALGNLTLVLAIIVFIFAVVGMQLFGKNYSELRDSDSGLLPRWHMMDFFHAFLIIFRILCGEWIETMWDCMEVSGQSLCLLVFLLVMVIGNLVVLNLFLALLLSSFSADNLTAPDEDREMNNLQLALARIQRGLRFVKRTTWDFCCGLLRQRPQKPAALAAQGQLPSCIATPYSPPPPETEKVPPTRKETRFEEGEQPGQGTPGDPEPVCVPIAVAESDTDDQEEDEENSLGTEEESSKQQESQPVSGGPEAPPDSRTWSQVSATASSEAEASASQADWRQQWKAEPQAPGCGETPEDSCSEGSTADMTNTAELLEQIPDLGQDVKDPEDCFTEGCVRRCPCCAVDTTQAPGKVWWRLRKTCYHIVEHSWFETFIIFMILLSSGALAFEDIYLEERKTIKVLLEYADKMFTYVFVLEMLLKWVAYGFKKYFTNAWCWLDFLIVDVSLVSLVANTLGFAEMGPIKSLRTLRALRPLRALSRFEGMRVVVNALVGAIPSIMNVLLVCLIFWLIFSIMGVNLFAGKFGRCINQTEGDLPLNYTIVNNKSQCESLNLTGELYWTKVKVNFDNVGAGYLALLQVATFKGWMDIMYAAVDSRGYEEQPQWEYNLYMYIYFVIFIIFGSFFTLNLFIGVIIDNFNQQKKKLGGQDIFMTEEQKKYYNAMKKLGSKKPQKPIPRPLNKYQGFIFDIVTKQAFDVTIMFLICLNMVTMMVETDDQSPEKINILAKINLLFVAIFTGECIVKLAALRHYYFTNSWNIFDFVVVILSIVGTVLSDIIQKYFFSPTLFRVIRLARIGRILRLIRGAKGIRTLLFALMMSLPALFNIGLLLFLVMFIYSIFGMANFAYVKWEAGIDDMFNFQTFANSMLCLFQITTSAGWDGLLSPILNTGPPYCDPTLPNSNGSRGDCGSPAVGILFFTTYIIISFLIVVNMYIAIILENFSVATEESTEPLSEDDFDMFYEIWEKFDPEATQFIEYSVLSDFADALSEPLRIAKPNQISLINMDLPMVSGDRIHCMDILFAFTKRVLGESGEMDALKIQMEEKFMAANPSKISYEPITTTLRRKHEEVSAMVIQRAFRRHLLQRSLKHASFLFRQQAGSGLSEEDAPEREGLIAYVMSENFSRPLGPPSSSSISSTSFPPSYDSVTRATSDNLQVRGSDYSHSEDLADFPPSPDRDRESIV
Protocol: (§1) and CiPA Initiative Studies
(§2) =============================================================
(§3) In vitro studies on other ion channels […]
(§4) through NaV1.5, KV4.3, KV7.1/mink, Kir2.1, KV1.5, CaV1.2 and CaV3.2 channels.
(§5) 35-mm dish culture in the conditions mentioned in standard cell culture conditions. Experiments were performed with a cell density enabling isolated cells for patch clamping. Cells were continuously superfused with extracellular medium (1-2 mL∙minute-1) at room temperature.
(§6) D-glucose 10, HEPES 10 and the final pH adjusted to 7.4±0.02 with NaOH for recording NaV1.5, KV4.3, KV7.1/mink, Kir2.1, KV1.5 and CaV3.2 currents. It was (in mM): NaCl 110, KCl 4, BaCl2 20, MgCl2 1, D-glucose 20, HEPES 10 and the final pH adjusted to 7.4 ± 0.02 with NaOH for recording the CaV1.2 current. Compositions of the intracellular solution to fill the pipette are […]
(§7) Composition of intracellular solutions used to fill pipette to record currents through NaV1.5, KV4.3, KV7.1/mink, Kir2.1, KV1.5, CaV1.2 and CaV3.2 channels
(§8) Solution to fill the pipette (mM)
(§9) Creatine-phospho kinase 50 U∙mL-1
(§10) After formation of a Gigaohm seal between the patch electrodes and individual cells (pipette resistance range: 2.0 MΩ - 7.0 MΩ; seal resistance range: > 1 GΩ) the cell membrane across the pipette tip was ruptured to assure electrical access to the cell interior (whole-cell patch-configuration). In case the quality of the seal was poor, the process of seal formation was repeated with a different cell and a new pipette. As soon as a stable seal was established outward tail currents were measured upon pulses described in the Table S2. If current density was judged to be too low for measurement, another cell was recorded. […]
(§11) voltage stimulation protocol indicated in the next table continuously run until the steady-state level of block was reached.
(§12) Stimulation conditions used to record currents through NaV1.5, KV4.3, KV7.1/mink, Kir2.1, KV1.5, CaV1.2 and CaV3.2 channels
(§13) Ion channel Holding potential Pulse / duration Frequency Reference compound […]
(§14) (resting / fast / slow sweeps at one (10 mM) inactivated concentration)

CaV1.2 = CaV1.2 (Homo sapiens, UniProt Q13936); experiment: cell-based
Protocol: as §1, §2, §3, §4, §5, §6, §7, §8, §9, §10, §11, §12, §13, §14

α2B‐adrenoceptor = α2B‐adrenoceptor (Homo sapiens, UniProt P18089); experiment: Affinity at α2B-adrenoceptor; assay type: binding
Sequence of α2B‐adrenoceptor (P18089 whole entry): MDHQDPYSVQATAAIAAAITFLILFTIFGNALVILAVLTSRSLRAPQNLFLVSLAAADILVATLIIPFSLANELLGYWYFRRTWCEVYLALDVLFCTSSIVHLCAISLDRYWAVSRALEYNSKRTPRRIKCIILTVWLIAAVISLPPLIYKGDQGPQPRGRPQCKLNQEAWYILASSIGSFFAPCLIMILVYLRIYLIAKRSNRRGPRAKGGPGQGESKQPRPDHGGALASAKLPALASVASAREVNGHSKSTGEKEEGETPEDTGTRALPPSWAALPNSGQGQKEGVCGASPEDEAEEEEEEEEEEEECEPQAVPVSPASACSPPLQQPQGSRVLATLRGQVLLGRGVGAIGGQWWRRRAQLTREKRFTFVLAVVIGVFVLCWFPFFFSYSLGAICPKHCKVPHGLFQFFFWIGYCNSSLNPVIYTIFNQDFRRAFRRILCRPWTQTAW

α2C‐adrenoceptor = α2C‐adrenoceptor (Homo sapiens, UniProt P18825); experiment: Affinity at α2C-adrenoceptor; assay type: binding
Sequence of α2C‐adrenoceptor (P18825 whole entry): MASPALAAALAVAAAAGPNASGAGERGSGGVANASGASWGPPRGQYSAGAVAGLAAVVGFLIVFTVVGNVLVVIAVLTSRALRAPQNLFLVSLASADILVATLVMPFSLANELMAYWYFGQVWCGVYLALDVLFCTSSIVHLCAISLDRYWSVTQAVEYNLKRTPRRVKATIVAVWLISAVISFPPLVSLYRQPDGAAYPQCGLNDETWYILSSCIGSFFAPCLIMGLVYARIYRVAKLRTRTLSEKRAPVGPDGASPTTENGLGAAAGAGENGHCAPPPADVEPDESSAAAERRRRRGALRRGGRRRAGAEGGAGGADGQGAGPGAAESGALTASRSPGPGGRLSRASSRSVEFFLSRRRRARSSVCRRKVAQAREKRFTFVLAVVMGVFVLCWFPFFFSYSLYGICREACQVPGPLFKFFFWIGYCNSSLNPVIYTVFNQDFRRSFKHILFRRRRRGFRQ

in vitro = details: human
Kir2.1 = target: T1, Kir2.1 (Homo sapiens, UniProt P63252); experiment: Whole-cell patch clamp on Kir2.1 (IK1); assay type: cell-based
T1 construct: expressed in transfected cells
T1 sequence (P63252 1-427): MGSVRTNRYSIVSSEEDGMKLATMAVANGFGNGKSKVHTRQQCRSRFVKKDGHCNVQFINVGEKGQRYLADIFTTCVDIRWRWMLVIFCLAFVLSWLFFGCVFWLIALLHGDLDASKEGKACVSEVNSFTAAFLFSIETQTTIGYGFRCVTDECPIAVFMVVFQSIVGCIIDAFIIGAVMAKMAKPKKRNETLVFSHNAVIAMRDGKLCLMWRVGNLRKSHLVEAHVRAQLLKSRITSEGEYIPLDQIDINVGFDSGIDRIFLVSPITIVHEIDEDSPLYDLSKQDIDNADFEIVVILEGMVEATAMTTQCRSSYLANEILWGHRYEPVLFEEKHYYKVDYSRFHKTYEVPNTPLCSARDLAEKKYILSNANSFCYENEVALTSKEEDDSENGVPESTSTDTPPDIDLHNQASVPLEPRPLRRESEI
Protocol: as §1, §2, §3, §4, §5, §6, §7, §8, §9, §10, §11, §12, §13, §14

## Cl.Clc1ccc(CCCOCCCN2CCCCC2)cc1 [pitolisant, 1‐{3‐[3‐(4‐chlorophenyl)propoxy]propyl}piperidine, hydrochloride]
hERG channel trafficking; 1 μM over 24 h, after washout
  effect on hERG current after long-term exposure: no significant effect on hERG current
hERG channel trafficking; LC-mass spectrometry
  change in concentration in the cell culture medium over 24 h of exposure: no significant changes
[1]
  effect on QTc interval: devoid of any effect on QTc interval
  pro-arrhythmic effect: lacked any pro‐arrhythmic effect
humans; 40 mg pitolisant hydrochloride, TQT study
  maximum mean (90% CI) placebo-corrected increase in QTcF interval from baseline (ΔΔQTcF): 3.29 (0.35, 6.23) ms
humans; 40 mg
  Cmax: 53 ± 27 ng/mL
humans; 120 mg pitolisant hydrochloride, TQT study
  maximum mean (90% CI) placebo-corrected increase in QTcF interval from baseline (ΔΔQTcF): 5.27 (2.35, 8.20) ms
humans; 120 mg
  Cmax: 164 ± 63 ng/mL
humans; 200 mg pitolisant hydrochloride, SAD study
  maximum mean (90% CI) placebo-corrected increase in QTcF interval from baseline (ΔΔQTcF): 13.3 (8.1, 18.5) ms
humans; 240 mg pitolisant hydrochloride, SAD study
  maximum mean (90% CI) placebo-corrected increase in QTcF interval from baseline (ΔΔQTcF): 9.9 (4.7, 15.1) ms
humans; 240 mg
  Cmax: 282 ± 47 ng/mL
Rabbit Purkinje fibres; 1 μM
  effects on electrophysiological parameters of the action potential: only minimal effects
Rabbit Purkinje fibres; 10 μM
  change in APA: −8 ± 3%
  change in APD50 vs. the control: −27 ± 4%
  change in Vmax: −17 ± 5%
  change in resting RMP vs. the control: −6 ± 1%
Rabbit Purkinje fibres; 10 μM, non-significant
  change in APD90 vs. the control: +9 ± 5%
Rabbit Purkinje fibres; Oryctolagus cuniculus, purkinje, estimated from 27% decrease in APD50 at 10 μM
  IC50: ~5 µM
NaV1.5; Fitted IC50, fit to fast inactivated Nav1.5
  IC50: 26.3 µM
NaV1.5; Fitted IC50, fit to slow inactivated Nav1.5
  IC50: 26.5 µM
NaV1.5; Fitted IC50, mean of fits to fast and slow inactivated Nav1.5, used for the whole Nav1.5 current, Hill coefficient of one
  IC50: 26.4 µM
NaV1.5; Pitolisant IC50, NaV1.5 fast inactivated state, INa
  IC50: ≥ 10 µM
NaV1.5; Pitolisant IC50, NaV1.5 resting state, INa
  IC50: > 10 µM
NaV1.5; Pitolisant IC50, NaV1.5 slow inactivated state, INa
  IC50: ≥ 10 µM
CaV1.2; Fitted IC50, CaV1.2 ICaL, Hill curve fit with Hill coefficient of one
  IC50: 9.5 µM
CaV1.2; Pitolisant IC50, CaV1.2, ICaL
  IC50: ~10 µM
α2B‐adrenoceptor
  Ki: 4.3 µM
α2C‐adrenoceptor
  Ki: 1.2 µM
In vitro
  fraction unbound: ~0.04
Kir2.1; Kir2.1 IK1, Hill curve fit with Hill coefficient of one, read-out: Fitted IC50
  IC50: 16.5 µM
Kir2.1; Pitolisant IC50, Kir2.1, IK1
  IC50: ≥ 10 µM

Reference: paper PMC5715595 (British Journal of Pharmacology, 2017)
